Measurements reported in patent US12336995B2, “Combination therapies” (Mirati Therapeutics, Inc., priority 2018, dated 2025).

Tests used:
KYSE-410 cells = experiment: In vivo tumor model, Compound 478 and Afatinib (Table 4b); conditions: KYSE-410, Afatinib 12.5 mg/kg, single or combined
Experimental: (§1) Immunocompromised nude/nude mice were inoculated in the right hind flank with cells or patient derived tumor samples harboring a KRas G12C mutation. […] The first group was administered vehicle only. […] The fourth group was administered the single agent dose of the KRas G12C inhibitor in combination with the single agent dose of the pan ErbB family inhibitor. […] Tumor volumes were measured using a caliper every two-three days and tumor volumes were calculated by the formula: 0.5×(Length×Width)^2.
(§2) Tumor volumes were measured at pre-specified days set forth below.

H2122 cells = experiment: In vivo tumor model, Compound 478 and Afatinib (Table 4a); conditions: for Average Tumor Volumes: H2122, Afatinib 12.5 mg/kg, single or combined
Experimental: as §1, §2

LU6405 cells (PDX model) = experiment: In vivo PDX model, Compound 478 and Afatinib (Table 4c); conditions: LU6405, Afatinib 12.5 mg/kg, single or combined
Experimental: as §1, §2

[1] = Day 11 post implant (treatment start), p.o. daily: Compound 478 100 mg/kg
[2] = Day 14 post implant, p.o. daily from Day 11: Compound 478 100 mg/kg
[3] = Day 18 post implant, p.o. daily from Day 11: Compound 478 100 mg/kg
[4] = Day 21 post implant, p.o. daily from Day 11: Compound 478 100 mg/kg
[5] = Day 25 post implant, p.o. daily from Day 11: Compound 478 100 mg/kg
[6] = Day 28 post implant, p.o. daily from Day 11: Compound 478 100 mg/kg
[7] = Day 32 post implant, p.o. daily from Day 11: Compound 478 100 mg/kg
[8] = Day 34 post implant, p.o. daily from Day 11: Compound 478 100 mg/kg

CN(C)C/C=C/C(=O)Nc1cc2c(Nc3ccc(F)c(Cl)c3)ncnc2cc1OC1CCOC1 (centres unmarked) [Afatinib, (E)-N-(4-((3-chloro-4-fluorophenyl)amino)-7-((tetrahydrofuran-3-yl)oxy)quinazolin-6-yl)-4-(dimethylamino)but-2-enamide, reference compound]
Average Tumor Volumes (KYSE-410 cells; [1]): 311.84 mm^3
Average Tumor Volumes (KYSE-410 cells; [2]): 199.20 mm^3
Average Tumor Volumes (KYSE-410 cells; Day 16 post implant, p.o. daily from Day 11: Compound 478 100 mg/kg): 135.30 mm^3
Average Tumor Volumes (KYSE-410 cells; [3]): 114.40 mm^3
Average Tumor Volumes (KYSE-410 cells; [4]): 114.08 mm^3
Average Tumor Volumes (KYSE-410 cells; Day 23 post implant, p.o. daily from Day 11: Compound 478 100 mg/kg): 132.92 mm^3
Average Tumor Volumes (KYSE-410 cells; [5]): 141.90 mm^3
Average Tumor Volumes (KYSE-410 cells; [6]): 144.36 mm^3
Average Tumor Volumes (KYSE-410 cells; Day 30 post implant, p.o. daily from Day 11: Compound 478 100 mg/kg): 166.46 mm^3
Average Tumor Volumes (KYSE-410 cells; [7]): 163.92 mm^3
Average Tumor Volumes (KYSE-410 cells; Day 35 post implant, p.o. daily from Day 11: Compound 478 100 mg/kg): 181.68 mm^3
Average Tumor Volumes (KYSE-410 cells; Day 37 post implant, p.o. daily from Day 11: Compound 478 100 mg/kg): 198.34 mm^3
Average Tumor Volumes (H2122 cells; [1]): 324.86 mm^3
Average Tumor Volumes (H2122 cells; Day 13 post implant, p.o. daily from Day 11: Compound 478 100 mg/kg): 429.76 mm^3
Average Tumor Volumes (H2122 cells; Day 15 post implant, p.o. daily from Day 11: Compound 478 100 mg/kg): 573.36 mm^3
Average Tumor Volumes (H2122 cells; [3]): 694.70 mm^3
Average Tumor Volumes (H2122 cells; Day 20 post implant, p.o. daily from Day 11: Compound 478 100 mg/kg): 850.85 mm^3
Average Tumor Volumes (H2122 cells; Day 22 post implant, p.o. daily from Day 11: Compound 478 100 mg/kg): 931.53 mm^3
Average Tumor Volumes (H2122 cells; [5]): 1153.42 mm^3
Average Tumor Volumes (H2122 cells; Day 27 post implant, p.o. daily from Day 11: Compound 478 100 mg/kg): 1307.50 mm^3
Average Tumor Volumes (H2122 cells; Day 29 post implant, p.o. daily from Day 11: Compound 478 100 mg/kg): 1137.09 mm^3
Average Tumor Volumes (H2122 cells; [7]): 1403.33 mm^3
Average Tumor Volumes (H2122 cells; [8]): 1830.13 mm^3
tumor growth inhibition (H2122 cells; H2122 tumor bearing mice, Day 22 (Treatment Day 10), single agent, Compound 478 100 mg/kg, afatinib 12.5 mg/kg p.o. daily): 41%
Average Tumor Volumes (LU6405 cells (PDX model); [1]): 257.48 mm^3
Average Tumor Volumes (LU6405 cells (PDX model); [2]): 371.98 mm^3
Average Tumor Volumes (LU6405 cells (PDX model); [3]): 585.54 mm^3
Average Tumor Volumes (LU6405 cells (PDX model); [4]): 775.75 mm^3
Average Tumor Volumes (LU6405 cells (PDX model); [5]): 1056.23 mm^3
Average Tumor Volumes (LU6405 cells (PDX model); [6]): 1197.31 mm^3
Average Tumor Volumes (LU6405 cells (PDX model); [7]): 1540.74 mm^3
Average Tumor Volumes (LU6405 cells (PDX model); [8]): 1655.49 mm^3
